In US20190223483A1, “SENSORY MODIFIER COMPOUNDS” (CARGILL, INCORPORATED, priority 2017, published 2019):

Key:
Assay type in all cases: in vivo
[1] = Roundtable assessment of spikey/rounded sweetness quality (scale 0 to 3); set-up: key: 0=none; 1=mostly spikey, some rounded; 2=mostly rounded, some spikey; 3=rounded
Protocol: (§1) For other sweetness attributes, the solutions were tested by a panel of at least four individuals that are highly-trained in tasting steviol glycoside solutions. The highly-trained panelists used a roundtable methodology to assess each sweetness attribute. To test each solution, the highly-trained panelists dispensed approximately 2 mL of each solution into their own mouths by transfer pipet, dispersed the solution by moving their tongues, and recorded a value for the particular sweetness attribute being tested. Between tasting solutions, the panelists were able to cleanse their palates with water. For each sweetness attribute, the panelist agreed on a descriptive scale with relative intensities assigned for each sweetness attribute and then recorded the values for each sweetness attribute against this. For example, this roundtable assessment of sweetness linger assigned a scale of 0 to 6 with a score of 0 indicating no sweetness linger and a score of 6 indicating extreme sweetness linger. Roundtable assessment of sweetness linger assigned a scale of 0 to 6 with a score of 0 indicating no sweetness linger and a score of 6 indicating extreme sweetness linger (0=none, 1=trace, 2=slight, 3=moderate, 4=definite, 5=strong, 6=extreme). Roundtable assessment of rounded assigned a scale of 0 to 3 with a score of 0 indicating spikey and a score of 3 indicating desirable rounded (0=none, 1=mostly spikey, some rounded, 2=mostly rounded, some spikey, 3=rounded). Roundtable assessment of mouthfeel assigned a scale of 0 to 2 with a score of 0 indicating water and a score of 2 indicating syrupy (0=water, 1=sucrosey, 2=syrupy). Roundtable assessment of bitterness assigned a scale of 0 to 6 with a score of 0 indicating no bitterness and a score of 6 indicating extreme sweetness linger (0=none, 1=trace, 2=slight, 3=moderate, 4=definite, 5=strong, 6=extreme). Roundtable assessment of off tastes assigned a scale of 0 to 6 with a score of 0 indicating no bitterness and a score of 6 indicating extreme off tastes (0=none, 1=trace, 2=slight, 3=moderate, 4=definite, 5=strong, 6=extreme).
A series of assays were carried out to characterize a sweetness quality of a not preferred spikey quality (a zero value) to a more desirable rounded quality (a 3 value) of steviol glycoside compositions with sensory modifier compound using the roundtable methodology described in Example 1. Rounded quality has the sensory experience of being more like sucrose. […] Solutions of steviol glycosides and sensory modifier compound were prepared at increasing ratios of sensory modifier to steviol glycoside by weight. The steviol glycosides were RebA (4 glycoside groups), RebD (5 glycoside groups), RebM (6 glycoside groups), and OPS1-5(7 glycoside groups) and the sensory modifier compound was monocaffeoylquinic and dicaffeoylquinic acids prepared from yerba mate. […] The solutions were tested for spikey/rounded.

[2] = Roundtable assessment of bitterness (scale 0 to 6); set-up: key: 0 = none; 1 = trace/faint; 2 = slight; 3 = moderate; 4 = definite; 5 = strong; 6 = extreme
[3] = Overall sweetness quality preference; set-up: key: ! = preferred; !! = very preferred; !!! = most preferred
Protocol: A series of assays were carried out to determine overall sweetness quality preference for steviol glycoside with sensory modifier compound. Solutions of steviol glycosides and sensory modifier compound were prepared at varying concentrations of steviol glycoside and sensory modifier compound. The steviol glycoside was RebM and the sensory modifier compound was monocaffeoylquinic and dicaffeoylquinic acids prepared from yerba mate. The concentration of steviol glycosides was between 0 ppm and 1600 ppm. The concentration of sensory modifier compound was between 0 ppm and 1600 ppm. The solutions were tested for overall sweetness quality preference (!=preferred, !!=very preferred, and !!!=most preferred).

[4] = Roundtable assessment of off taste (scale 0 to 6); set-up: key: 0 = none; 1 = trace/faint; 2 = slight; 3 = moderate; 4 = definite; 5 = strong; 6 = extreme
[5] = Roundtable assessment of mouthfeel (scale 0 to 2)
Protocol: as §1
A series of assays were carried out to characterize a sweetness quality of mouthfeel (0=water, 1=sucrosey, 2=syrupy) of steviol glycoside compositions with sensory modifier compound using the roundtable methodology described in Example 1. […] Solutions of steviol glycosides and sensory modifier compound were prepared at increasing ratios of sensory modifier to steviol glycoside by weight. The steviol glycosides were RebA (4 glycoside groups), RebD (5 glycoside groups), RebM (6 glycoside groups), and OPS1-5(7 glycoside groups) and the sensory modifier compound was monocaffeoylquinic and dicaffeoylquinic acids prepared from yerba mate. The concentration of steviol glycosides was 700 ppm in each solution. […]

[6] = RebM 700 ppm + rosmarinic acid 391 ppm
[7] = RebM 700 ppm + rosmarinic acid 586 ppm
[8] = steviol glycoside 700 ppm, sensory modifier 0 ppm
[9] = RebM 700 ppm + cichoric acid (tartaric backbone) 514 ppm
[10] = steviol glycoside 700 ppm + yerba mate mono/dicaffeoylquinic acids 810 ppm
[11] = steviol glycoside 700 ppm + yerba mate mono/dicaffeoylquinic acids 630 ppm
[12] = steviol glycoside 700 ppm + yerba mate mono/dicaffeoylquinic acids 946 ppm
[13] = steviol glycoside 700 ppm + yerba mate mono/dicaffeoylquinic acids […]

SMILES: C=C1C[C@@]23CC[C@H]4[C@@](C)(CCC[C@@]4(C)C(=O)O[C@@H]4O[C@H](CO)[C@@H](O)[C@H](O[C@@H]5O[C@H](CO)[C@@H](O)[C@H](O)[C@H]5O)[C@H]4O[C@@H]4O[C@H](CO)[C@@H](O)[C@H](O)[C@H]4O)[C@@H]2CC[C@]1(O[C@@H]1O[C@H](CO)[C@@H](O)[C@H](O[C@@H]2O[C@H](CO)[C@@H](O)[C@H](O)[C@H]2O)[C@H]1O[C@@H]1O[C@H](CO)[C@@H](O)[C@H](O)[C@H]1O)C3 [RebM, Rebaudioside M]
- Spikey/rounded (spikey = 0) (rounded = 3) ([1]; RebM 100 ppm + yerba mate mono/dicaffeoylquinic acids 100 ppm (1:1)): 0
- Spikey/rounded (spikey = 0) (rounded = 3) ([1]; RebM 200 ppm + yerba mate mono/dicaffeoylquinic acids 200 ppm (1:1)): 0
- Spikey/rounded (spikey = 0) (rounded = 3) ([1]; RebM 300 ppm + yerba mate mono/dicaffeoylquinic acids 300 ppm (1:1)): 1
- Spikey/rounded (spikey = 0) (rounded = 3) ([1]; RebM 400 ppm + yerba mate mono/dicaffeoylquinic acids 400 ppm (1:1)): 1
- Spikey/rounded (spikey = 0) (rounded = 3) ([1]; RebM 500 ppm + yerba mate mono/dicaffeoylquinic acids 500 ppm (1:1)): 1
- Spikey/rounded (spikey = 0) (rounded = 3) ([1]; RebM 600 ppm + yerba mate mono/dicaffeoylquinic acids 600 ppm (1:1)): 1
- Spikey/rounded (spikey = 0) (rounded = 3) ([1]; RebM 700 ppm + rosmarinic acid 195 ppm): 0
- Spikey/rounded (spikey = 0) (rounded = 3) [1, 6]: 2
- Spikey/rounded (spikey = 0) (rounded = 3) [1, 7]: 3
- Spikey/rounded (spikey = 0) (rounded = 3) ([1]; RebM 700 ppm + yerba mate mono/dicaffeoylquinic acids 700 ppm (1:1)): 2
- rounded quality ([1]; RebM 700 ppm, above 200 ppm sensory modifier): 2
- Spikey/rounded (spikey = 0) (rounded = 3) ([1]; RebM 800 ppm + yerba mate mono/dicaffeoylquinic acids 800 ppm (1:1)): 2
- Spikey/rounded (spikey = 0) (rounded = 3) ([1]; RebM 900 ppm + yerba mate mono/dicaffeoylquinic acids 900 ppm (1:1)): 2
- Spikey/rounded (spikey = 0) (rounded = 3) ([1]; RebM 1000 ppm + yerba mate mono/dicaffeoylquinic acids 1000 ppm (1:1)): 2
- Spikey/rounded (spikey = 0) (rounded = 3) ([1]; RebM 1100 ppm + yerba mate mono/dicaffeoylquinic acids 1100 ppm (1:1)): 2
- Spikey/rounded (spikey = 0) (rounded = 3) ([1]; RebM 1200 ppm + yerba mate mono/dicaffeoylquinic acids 1200 ppm (1:1)): 2
- Spikey/rounded (spikey = 0) (rounded = 3) ([1]; RebM 1300 ppm + yerba mate mono/dicaffeoylquinic acids 1300 ppm (1:1)): 2
- Spikey/rounded (spikey = 0) (rounded = 3) ([1]; RebM 1400 ppm + yerba mate mono/dicaffeoylquinic acids 1400 ppm (1:1)): 2
- Spikey/rounded (spikey = 0) (rounded = 3) ([1]; RebM 1500 ppm + yerba mate mono/dicaffeoylquinic acids 1500 ppm (1:1)): 2
- Spikey/rounded (spikey = 0) (rounded = 3) ([1]; RebM 1600 ppm + yerba mate mono/dicaffeoylquinic acids 1600 ppm (1:1)): 2
- rounded quality ([1]; RebM solution with 300 ppm sensory modifier): 3
- Spikey/rounded (spikey = 0) (rounded = 3) ([1]; steviol glycoside 700 ppm + yerba mate mono/dicaffeoylquinic acids 236 ppm): 2
- Spikey/rounded (spikey = 0) (rounded = 3) ([1]; steviol glycoside 700 ppm + yerba mate mono/dicaffeoylquinic acids 300 ppm): 2
- Spikey/rounded (spikey = 0) (rounded = 3) ([1]; steviol glycoside 700 ppm + yerba mate mono/dicaffeoylquinic acids 400 ppm): 3
- Spikey/rounded (spikey = 0) (rounded = 3) ([1]; steviol glycoside 700 ppm + yerba mate mono/dicaffeoylquinic acids 472 ppm): 3
- Spikey/rounded (spikey = 0) (rounded = 3) ([1]; steviol glycoside 700 ppm + yerba mate mono/dicaffeoylquinic acids 500 ppm): 3
- Spikey/rounded (spikey = 0) (rounded = 3) ([1]; steviol glycoside 700 ppm + yerba mate mono/dicaffeoylquinic acids 600 ppm): 2
- Spikey/rounded (spikey = 0) (rounded = 3) ([1]; steviol glycoside 700 ppm + yerba mate mono/dicaffeoylquinic acids 700 ppm): 3
- Spikey/rounded (spikey = 0) (rounded = 3) ([1]; steviol glycoside 700 ppm + yerba mate mono/dicaffeoylquinic acids 708 ppm): 3
- Spikey/rounded (spikey = 0) (rounded = 3) ([1]; steviol glycoside 700 ppm + yerba mate mono/dicaffeoylquinic acids 800 ppm): 3
- Spikey/rounded (spikey = 0) (rounded = 3) [1, 8]: 0
- Bitterness [2, 9]: 0
- Bitterness [2, 7]: 0
- Sweetness Quality preferred ([3]; quinic acid backbone modifier 400 ppm, RebM 600 ppm): !!
- Sweetness Quality preferred ([3]; quinic acid backbone modifier 400 ppm, RebM 700 ppm): !!
- Sweetness Quality preferred ([3]; quinic acid backbone modifier 500 ppm, RebM 600 ppm): !
- Sweetness Quality preferred ([3]; quinic acid backbone modifier 500 ppm, RebM 700 ppm): !!!
- Sweetness Quality preferred ([3]; quinic acid backbone modifier 600 ppm, RebM 400 ppm): !
- Sweetness Quality preferred ([3]; quinic acid backbone modifier 600 ppm, RebM 700 ppm): !
- Sweetness Quality preferred ([3]; quinic acid backbone modifier 700 ppm, RebM 800 ppm): !!
- Sweetness Quality preferred ([3]; quinic acid backbone modifier 800 ppm, RebM 400 ppm): !
- Sweetness Quality preferred ([3]; quinic acid backbone modifier 800 ppm, RebM 600 ppm): !
- Sweetness Quality preferred ([3]; quinic acid backbone modifier 800 ppm, RebM 700 ppm): !
- Off taste [4, 9]: 0
- Off taste ([4]; RebM 700 ppm + cichoric acid (tartaric backbone) 772 ppm): 0
- Off taste [4, 6]: 2

SMILES: C=C1C[C@@]23CC[C@H]4[C@@](C)(CCC[C@@]4(C)C(=O)O[C@@H]4O[C@H](CO)[C@@H](O)[C@H](O)[C@H]4O[C@@H]4O[C@H](CO)[C@@H](O)[C@H](O)[C@H]4O)[C@@H]2CC[C@]1(O[C@@H]1O[C@H](CO)[C@@H](O)[C@H](O[C@@H]2O[C@H](CO)[C@@H](O)[C@H](O)[C@H]2O)[C@H]1O[C@@H]1O[C@H](CO)[C@@H](O)[C@H](O)[C@H]1O)C3 [RebD, Rebaudioside D]
- Spikey/rounded (spikey = 0) (rounded = 3) ([1]; steviol glycoside 700 ppm + yerba mate mono/dicaffeoylquinic acids 270 ppm): 1
- Spikey/rounded (spikey = 0) (rounded = 3) ([1]; steviol glycoside 700 ppm + yerba mate mono/dicaffeoylquinic acids 540 ppm): 3
- Spikey/rounded (spikey = 0) (rounded = 3) [1, 10]: 3
- Spikey/rounded (spikey = 0) (rounded = 3) [1, 8]: 2
- Mouthfeel [5, 10]: Not noted by panel

SMILES: C=C1C[C@@]23CC[C@H]4[C@@](C)(CCC[C@@]4(C)C(=O)O[C@@H]4O[C@H](CO)[C@@H](O)[C@H](O)[C@H]4O)[C@@H]2CC[C@]1(O[C@@H]1O[C@H](CO)[C@@H](O)[C@H](O[C@@H]2O[C@H](CO)[C@@H](O)[C@H](O)[C@H]2O)[C@H]1O[C@@H]1O[C@H](CO)[C@@H](O)[C@H](O)[C@H]1O)C3 [RebA, Rebaudioside A]
- Spikey/rounded (spikey = 0) (rounded = 3) [1, 11]: Not observed
- Spikey/rounded (spikey = 0) (rounded = 3) [1, 12]: Not observed
- Spikey/rounded (spikey = 0) (rounded = 3) [1, 13]: Not observed
- Spikey/rounded (spikey = 0) (rounded = 3) [1, 8]: 0
- Mouthfeel [5, 11]: Not noted by panel
- Mouthfeel [5, 12]: Not noted by panel
- Mouthfeel [5, 13]: Not noted by panel
